Laboratory results taken from patent US7902373B2 (Pfizer Inc, priority 2006, dated 2011).

The compounds below were run against human recombinant H-PGDS (Homo sapiens, UniProt O60760) (assay: Fluorescence intensity h-PGDS TBA enzyme assay). Conditions: Examples up to 622 (and 3a, 3b).
Format: biochemical

Chain of human recombinant H-PGDS (O60760 whole entry): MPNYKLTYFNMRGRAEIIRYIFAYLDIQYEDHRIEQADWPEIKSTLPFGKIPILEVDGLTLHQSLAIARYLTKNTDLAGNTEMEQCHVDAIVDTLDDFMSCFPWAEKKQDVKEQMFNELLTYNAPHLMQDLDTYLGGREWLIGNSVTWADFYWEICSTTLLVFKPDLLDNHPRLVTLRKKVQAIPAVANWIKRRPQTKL

Row | SMILES | IC50 [nM]
1 | COc1ccc(C(C)N2CCC(NC(=O)c3ccc(-c4cccc(F)c4)nc3)CC2)cc1 (centres unmarked) [Example 535, 6-(3-Fluorophenyl)-N-{1-[1-(4-methoxyphenyl)ethyl]piperidin-4-yl}nicotinamide] | 2.11
2 | COc1ccc(C(C)N2CCC(NC(=O)c3ccc(-c4cccc(F)c4)nc3)CC2)cc1OC (centres unmarked) [Example 536, N-{1-[1-(3,4-Dimethoxyphenyl)ethyl]piperidin-4-yl}-6-(3-fluorophenyl)nicotinamide] | 1.75
3 | CC(c1cnn(-c2ccccc2)c1)N1CCC(NC(=O)c2ccc(-c3cccc(F)c3)nc2)CC1 (centres unmarked) [Example 540, 6-(3-Fluorophenyl)-N-{1-[1-(1-phenyl-1H-pyrazol-4-yl)ethyl]piperidin-4-yl}nicotinamide] | 1.99
4 | CCC(c1ccc(OC)c(OC)c1)N1CCC(NC(=O)c2ccc(-c3cccc(F)c3)nc2)CC1 (centres unmarked) [Example 541, N-{1-[1-(3,4-Dimethoxyphenyl)propyl]piperidin-4-yl}-6-(3-fluorophenyl)nicotinamide] | 0.951
5 | COc1ccc(C(C)N2CCC(NC(=O)c3ccc(-c4cccc(F)c4)nc3)CC2)c(OC)c1 (centres unmarked) [Example 543, N-{1-[1-(2,4-Dimethoxyphenyl)ethyl]piperidin-4-yl}-6-(3-fluorophenyl)nicotinamide] | 3.27
6 | COc1cc(OC)cc(C(C)N2CCC(NC(=O)c3ccc(-c4cccc(F)c4)nc3)CC2)c1 (centres unmarked) [Example 544, N-{1-[1-(3,5-Dimethoxyphenyl)ethyl]piperidin-4-yl}-6-(3-fluorophenyl)nicotinamide] | 1.27
7 | CCC(C)N1CCC(NC(=O)c2ccc(-c3cccc(F)c3)nc2)CC1 (centres unmarked) [Example 545, N-(1-sec-Butylpiperidin-4-yl)-6-(3-fluorophenyl)nicotinamide] | 2.65
8 | CC(CCn1cccn1)N1CCC(NC(=O)c2ccc(-c3cccc(F)c3)nc2)CC1 (centres unmarked) [Example 548, 6-(3-Fluorophenyl)-N-{1-[1-methyl-3-(1H-pyrazol-1-yl)propyl]piperidin-4-yl}nicotinamide] | 2.07
9 | CC(CCO)N1CCC(NC(=O)c2ccc(-c3cccc(F)c3)nc2)CC1 (centres unmarked) [Example 550, 6-(3-Fluorophenyl)-N-[1-(3-hydroxy-1-methylpropyl)piperidin-4-yl]nicotinamide] | 2.38
10 | COc1ccccc1OCC(C)N1CCC(NC(=O)c2ccc(-c3cccc(F)c3)nc2)CC1 (centres unmarked) [Example 553, 6-(3-Fluorophenyl)-N-{1-[2-(2-methoxyphenoxy)-1-methylethyl]piperidin-4-yl}nicotinamide] | 1.78
11 | CC(C)(C)OC(=O)c1ccc(N2CCC(NC(=O)c3ccc(-c4cccc(F)c4)nc3)CC2)nc1 [Example 559, tert-Butyl 6-[4-({[6-(3-fluorophenyl)pyridin-3-yl]carbonyl}amino)piperidin-1-yl]nicotinate] | 10.6
12 | O=C(O)c1ccc(N2CCC(NC(=O)c3ccc(-c4cccc(F)c4)nc3)CC2)nc1 [Example 560, 6-[4-({[6-(3-Fluorophenyl)pyridin-3-yl]carbonyl}amino)piperidin-1-yl]nicotinic acid] | 0.641
13 | CCN(CCO)C(=O)c1ccc(N2CCC(NC(=O)c3ccc(-c4cccc(F)c4)nc3)CC2)nc1 [Example 561, N-Ethyl-6-[4-({[6-(3-fluorophenyl)pyridin-3-yl]carbonyl}amino)piperidin-1-yl]-N-(2-hydroxyethyl)nicotinamide] | 1.14
14 | C=C(C)CN(C)C(=O)c1ccc(N2CCC(NC(=O)c3ccc(-c4cccc(F)c4)nc3)CC2)nc1 [Example 562, 6-[4-({[6-(3-Fluorophenyl)pyridin-3-yl]carbonyl}amino)piperidin-1-yl]-N-methyl-N-(2-methylprop-2-en-1-yl)nicotinamide] | 1.74
15 | C=CCN(C)C(=O)c1ccc(N2CCC(NC(=O)c3ccc(-c4cccc(F)c4)nc3)CC2)nc1 [Example 563, N-Allyl-6-[4-({[6-(3-fluorophenyl)pyridin-3-yl]carbonyl}amino)piperidin-1-yl]-N-methylnicotinamide] | 0.981
16 | O=C(NC1CCN(c2ccc(C(=O)N3CCC3)cn2)CC1)c1ccc(-c2cccc(F)c2)nc1 [Example 564, N-{1-[5-(Azetidin-1-ylcarbonyl)pyridin-2-yl]piperidin-4-yl}-6-(3-fluorophenyl)nicotinamide] | 1.09
17 | C#CCN(C)C(=O)c1ccc(N2CCC(NC(=O)c3ccc(-c4cccc(F)c4)nc3)CC2)nc1 [Example 565, 6-[4-({[6-(3-Fluorophenyl)pyridin-3-yl]carbonyl}amino)piperidin-1-yl]-N-methyl-N-prop-2-yn-1-ylnicotinamide] | 1.05
18 | CCN(C)C(=O)c1ccc(N2CCC(NC(=O)c3ccc(-c4cccc(F)c4)nc3)CC2)nc1 [Example 566, N-Ethyl-6-[4-({[6-(3-fluorophenyl)pyridin-3-yl]carbonyl}amino)piperidin-1-yl]-N-methylnicotinamide] | 1.82
19 | CC(CO)N(C)C(=O)c1ccc(N2CCC(NC(=O)c3ccc(-c4cccc(F)c4)nc3)CC2)nc1 (centres unmarked) [Example 567, 6-[4-({[6-(3-Fluorophenyl)pyridin-3-yl]carbonyl}amino)piperidin-1-yl]-N-(2-hydroxy-1-methylethyl)-N-methylnicotinamide] | 0.867
20 | O=C(NC1CCN(c2ccc(C(=O)N3CCC(F)C3)cn2)CC1)c1ccc(-c2cccc(F)c2)nc1 (centres unmarked) [Example 568, 6-(3-Fluorophenyl)-N-(1-{5-[(3-fluoropyrrolidin-1-yl)carbonyl]pyridin-2-yl}piperidin-4-yl)nicotinamide] | 0.649
21 | CN(C(=O)c1ccc(N2CCC(NC(=O)c3ccc(-c4cccc(F)c4)nc3)CC2)nc1)C1CCC1 [Example 569, N-Cyclobutyl-6-[4-({[6-(3-fluorophenyl)pyridin-3-yl]carbonyl}amino)piperidin-1-yl]-N-methylnicotinamide] | 2.13
22 | CCN(CC)C(=O)c1ccc(N2CCC(NC(=O)c3ccc(-c4cccc(F)c4)nc3)CC2)nc1 [Example 570, N,N-Diethyl-6-[4-({[6-(3-fluorophenyl)pyridin-3-yl]carbonyl}amino)piperidin-1-yl]nicotinamide] | 1.41
23 | O=C(NC1CCN(c2ccc(C(=O)N3CC=CC3)cn2)CC1)c1ccc(-c2cccc(F)c2)nc1 [Example 571, N-{1-[5-(2,5-Dihydro-1H-pyrrol-1-ylcarbonyl)pyridin-2-yl]piperidin-4-yl)-6-(3-fluorophenyl)nicotinamide] | 1.04
24 | CCCN(C)C(=O)c1ccc(N2CCC(NC(=O)c3ccc(-c4cccc(F)c4)nc3)CC2)nc1 [Example 572, 6-[4-({[6-(3-Fluorophenyl)pyridin-3-yl]carbonyl}amino)piperidin-1-yl]-N-methyl-N-propylnicotinamide] | 5.25

Second part, the compound after the results:

Row | IC50 [nM] | SMILES
25 | 2.68 | O=C(NC1CCN(C2CCC(=O)N(CC3CC3)CC2)CC1)c1ccc(-c2cccc(F)c2)nc1 (centres unmarked) [Example 537, N-{1-[1-(Cyclopropylmethyl)-7-oxoazepan-4-yl]piperidin-4-yl}-6-(3-fluorophenyl)nicotinamide]
26 | 1.94 | CC(C)CN1CCC(N2CCC(NC(=O)c3ccc(-c4cccc(F)c4)nc3)CC2)CCC1=O (centres unmarked) [Example 538, 6-(3-Fluorophenyl)-N-[1-(1-isobutyl-7-oxoazepan-4-yl)piperidin-4-yl]nicotinamide]
27 | 2.71 | COCCN1CCC(N2CCC(NC(=O)c3ccc(-c4cccc(F)c4)nc3)CC2)CCC1=O (centres unmarked) [Example 539, 6-(3-Fluorophenyl)-N-{1-[1-(2-methoxyethyl)-7-oxoazepan-4-yl]piperidin-4-yl}nicotinamide]
28 | 1.68 | O=C(NC1CCN(C2CCC(=O)N(CC3CCC3)CC2)CC1)c1ccc(-c2cccc(F)c2)nc1 (centres unmarked) [Example 542, N-{1-[1-(Cyclobutylmethyl)-7-oxoazepan-4-yl]piperidin-4-yl}-6-(3-fluorophenyl)nicotinamide]
29 | 2.83 | CC(=O)NC1CCC(N2CCC(NC(=O)c3ccc(-c4cccc(F)c4)nc3)CC2)CC1 (centres unmarked) [Example 546, N-{1-[4-(Acetylamino)cyclohexyl]piperidin-4-yl}-6-(3-fluorophenyl)nicotinamide]
30 | 1.14 | O=C(NC1CCN(C2CCOCC2)CC1)c1ccc(-c2cccc(F)c2)nc1 [Example 547, 6-(3-Fluorophenyl)-N-[1-(tetrahydro-2H-pyran-4-yl)piperidin-4-yl]nicotinamide]
31 | 2.26 | COC1CCCC(N2CCC(NC(=O)c3ccc(-c4cccc(F)c4)nc3)CC2)C1 (centres unmarked) [Example 549, 6-(3-Fluorophenyl)-N-[1-(3-methoxycyclohexyl)piperidin-4-yl]nicotinamide]
32 | 1.32 | O=C(NC1CCN(C2CCCC2)CC1)c1ccc(-c2cccc(F)c2)nc1 [Example 551, N-(1-Cyclopentylpiperidin-4-yl)-6-(3-fluorophenyl)nicotinamide]
33 | 2.37 | O=C(NC1CCN(C2CNC2)CC1)c1ccc(-c2cccc(F)c2)nc1 [Example 552, N-(1-Azetidin-3-ylpiperidin-4-yl)-6-(3-fluorophenyl)nicotinamide]
34 | 1.72 | O=C(NC1CCN(C2CCC(O)(c3cncnc3)CC2)CC1)c1ccc(-c2cccc(F)c2)nc1 (centres unmarked) [Example 554, 6-(3-Fluorophenyl)-N-[1-(4-hydroxy-4-pyrimidin-5-ylcyclohexyl)piperidin-4-yl]nicotinamide]
35 | 0.928 | O=C(NC1CCN(C2CCC(O)(c3nccs3)CC2)CC1)c1ccc(-c2cccc(F)c2)nc1 (centres unmarked) [Example 555, 6-(3-Fluorophenyl)-N-{1-[4-hydroxy-4-(1,3-thiazol-2-yl)cyclohexyl]piperidin-4-yl}nicotinamide]
36 | 0.364 | O=C(NC1CCN(C2CCC(Oc3ccccc3)CC2)CC1)c1ccc(-c2cccc(F)c2)nc1 (centres unmarked) [Example 556, 6-(3-Fluorophenyl)-N-[1-(4-phenoxycyclohexyl)piperidin-4-yl]nicotinamide]
37 | 6.56 | NC(=O)CCN1CCC(N2CCC(NC(=O)c3ccc(-c4cccc(F)c4)nc3)CC2)CCC1=O (centres unmarked) [Example 557, N-{1-[1-(3-Amino-3-oxopropyl)-7-oxoazepan-4-yl]piperidin-4-yl}-6-(3-fluorophenyl)nicotinamide]
38 | 0.345 | O=C(NC1CCN(C2CCC(O)(c3ccccc3)CC2)CC1)c1ccc(-c2cccc(F)c2)nc1 (centres unmarked) [Example 558, 6-(3-Fluorophenyl)-N-[1-(4-hydroxy-4-phenylcyclohexyl)piperidin-4-yl]nicotinamide]
